In patent publication US6426367B1, “Methods for selectively occluding blood supplies to neoplasias” (EFA Sciences LLC, priority 1999, dated 2002):
Like-named read-outs stand apart in the source and are kept apart here.

Assays:
tumor cells = details: cited from earlier work; for differential cytotoxic effect, tumor cells versus normal cells: well defined culture conditions
human gliomas = details: direct intra-tumoral administration; cited from earlier work
tumor-feeding vessels = test system: tumor-feeding vessels
Protocol: (§1) Studies were conducted in 5 human patients with stage 4 neoplastic disease. Two of the patients had primary hepatoma (patients 1 and 2), two had giant cell tumor of the bone (patients 3 and 4) and one had renal cell carcinoma (patient 5).
(§2) The lithium salt of GLA was obtained from Scotia Pharmaceuticals, U.K. The PUFA salt was dissolved in sterile saline, sterile phosphate buffered saline (PBS, pH 7.4) or dilute ethanol in saline (final concentration <0.02% ethanol). The final concentration of PUFA in these solutions was approximately 25%. The PUFA solution was mixed with an iodized lymphographic oil (LIPIODOL ULTRA FLUIDE®, Laboratoire Guerbet, Paris, France), in a ratio of between 1:1.5 and 1:3 (volume/volume). In some cases, the PUFA was modified by covalent conjugation (e.g., amide bond) to the iodized lymphographic oil. In other cases the PUFA salt was unmodified, and was diluted directly into the lymphographic agent without conjugation. The PUFA and lymphographic oil mixture was prepared under sterile conditions immediately prior to use.
(§3) Patients were admitted into the hospital for the study. A proximal artery suppling a major portion of the blood supply to the tumor was identified. Catheterization of the major artery from which the proximal artery arises was performed under local anaesthesia. In patients 1 and 2 (with hepatomas), the tip of the catheter was positioned in the right hepatic artery via the right femoral artery. In patient 3 (with giant cell tumor of the right lower end of the femur), the tip of the catheter was positioned in the right femoral/popliteal artery. In patient 4 (with giant cell tumor of the left scapula), the tip of the catheter was positioned in the left subdlavian/axillary arteries. In patient 5 (with left kidney tumor), the tip of the catheter was positioned in the left renal artery. Conjugated PUFA salt was prepared fresh, just prior to injection. Radiographic and CT scan examinations were performed immediately after the injection and at periodic intervals in all the five patients.
(§4) In order to determine how the arterial supply to the tumor tissue was influenced by the injection of PUFA salt, angiography was performed and recorded during and immediately after the procedure, and at periodic intervals thereafter.
(§5) Patients 1 and 2 with hepatoma were administered total doses of 1.6 gm and 0.75 gm respectively (the dose refers to the amount of Li-GLA) of PUFA salt into the right hepatic artery through the right femoral route. Patient 3, with giant cell tumor of the lower end of the right femur, underwent right femoral artery catheterization and the tip of the catheter was positioned in the popliteal artery to deliver 500 mg of PUFA salt. Patient 4, who had giant cell tumor of the left scapula, received PUFA salt by selective cannulation of the left subdlavian artery, through the femoral route, from which the tumor-feeding vessel was arising and was given 660 mg of PUFA salt. Patient 5, with renal tumor, received 750 mg of PUFA salt through the right femoral route into the left renal artery from which the tumor-feeding vessels were arising. In all the patients, the administration of PUFA salt was done as swiftly as possible. During the administration of PUFA salt, the vital signs of each patient were monitored.

[1] = test system: stage 4 neoplastic disease (hepatoma, giant cell tumor of the bone, renal cell carcinoma)
Protocol: as §1, §2, §3
as §5, with “Patient 5, with renal tumor, received 750 mg of PUFA salt through the right femoral route into the left renal artery from which the tumor-feeding vessels were arising. In all the patients, the administration of PUFA salt was done as swiftly as possible.” left out

[2] = test system: normal arteries including the celiac, subclavian and popliteal arteries
Protocol: Moreover, in several other patients, a PUFA was injected into normal arteries including the celiac, subclavian and popliteal arteries.
as §4

[3] = Protocol: as §3, §5
[4] = patient 4, seven and a half years after injection

For `CCCCC/C=C\C/C=C\C/C=C\C/C=C\CCCC(=O)O` [AA, arachidonic acid], the “differential cytotoxic effect, tumor cells versus normal cells” value (“differential cytotoxic effect” below) (tumor cells) is given as “marked differential cytotoxic effect”.

In the case of `CC/C=C\C/C=C\C/C=C\C/C=C\C/C=C\C/C=C\CCC(=O)O` [DHA, docosahexaenoic acid], the “differential cytotoxic effect” value (tumor cells) is listed as “marked differential cytotoxic effect”.

In the case of `CC/C=C\C/C=C\C/C=C\C/C=C\C/C=C\CCCC(=O)O` [EPA, eicosapentaenoic acid], the “differential cytotoxic effect” value (tumor cells) is given as “marked differential cytotoxic effect”.

In the case of `CCCCC/C=C\C/C=C\C/C=C\CCCCC(=O)O` [GLA, gamma-linolenic acid], the “effect on human gliomas” value (human gliomas) is listed as “can regress human gliomas”, the side-effects (human gliomas) is listed as “without significant side-effects” and the “selectivity of tumoricidal action in mixed culture” value (tumor cells; normal and tumor cells grown together) is listed as “more selective tumoricidal action compared to AA and EPA”. The “differential cytotoxic effect” value (tumor cells) was “marked differential cytotoxic effect”.

For `CCCCC/C=C\C/C=C\C/C=C\CCCCC(=O)[O-].[Li+]` [PUFA salt, lithium salt of GLA], the “occlusion of the tumor-feeding vessels following PUFA salt injection” value (tumor-feeding vessels; all 5 patients, intra-arterial, 0.5-1.6 gm Li-GLA mixed with or conjugated to LIPIODOL) was “total occlusion of the tumor-feeding vessels”, the “speed of occlusion of tumor-feeding vessels” value (tumor-feeding vessels; all types of tumor-feeding vessels, irrespective of size) was “almost instantaneously” and the “occlusion of tumor-feeding vessels in third angiogram” value (tumor-feeding vessels; patient 1, hepatoma, 1 week after second dose (0.5 gm), 11th day after first dose) was “almost complete occlusion”. The “tumor blush in repeat angiogram” value (tumor-feeding vessels; patient 1, hepatoma, 4 days after first dose) was “much reduced”, the “tumor-feeding vessels visible on repeat angiogram” value (tumor-feeding vessels; patient 1, hepatoma, 28 days after injection) was “no tumor-feeding vessels could be seen” and the “tumor-feeding vessels occluded following the first injection” value (tumor-feeding vessels; patient 1, hepatoma, first dose 1.1 gm, right hepatic artery) was “More than 50%”. For the same molecule, the “timing of occlusion of tumor-feeding vessels” value (tumor-feeding vessels; patient 2, hepatoma) was “essentially simultaneously with the injection”, the “occlusion of tumor-feeding vessels immediately after injection” value (tumor-feeding vessels; patient 2, hepatoma, 750 mg, right hepatic artery) was “complete occlusion” and the “state of occluded tumor-feeding vessels in repeat angiogram” value (tumor-feeding vessels; patient 3, 10 days after injection) was “remained closed”. The “occlusion of tumor-feeding vessels immediately after injection” value (tumor-feeding vessels; patient 3, giant cell tumor of right femur, 500 mg, femoral/popliteal artery) was “Complete occlusion”, the “occlusion of tumor-feeding vessels immediately after administration” value (tumor-feeding vessels; patient 4, giant cell tumor of left scapula, 660 mg, left subclavian artery) was “Complete occlusion” and the “state of tumor-feeding vessels in follow-up angiogram” value (tumor-feeding vessels; [4]) was “still occluded”. For the same molecule, the “occlusion of tumor-feeding arteries” value (tumor-feeding vessels; patient 5, renal cell carcinoma, 750 mg, renal artery) was “Complete occlusion”, the “weight gain after injection” value ([1]; patient 1, hepatoma, 6 months following the injection) was over 10 kgs and the “reduction in the size of the hepatoma” value ([1]; patient 1, one month after the first injection) was “More than 50%”. The “state of the tumor mass at follow-up” value [1, 4] was “completely calcified”, the survival after injection ([1]; patient 5, advanced renal cell carcinoma with secondary tumors) was 3 months and the “occlusion of normal arteries feeding the normal lower pole of the kidney” value ([2]; patient 5, 750 mg, renal artery) was “without any occlusion”. The “occlusion of normal vasculature feeding non-neoplastic tissues” value ([2]; patients treated with PUFA salt, angiograms) was “No occlusion”, the “spasms or occlusions of normal arteries after injection” value ([2]; several other patients, injection into celiac, subclavian and popliteal arteries) was “no spasms or occlusions” and the “side-effects due to the therapy” value ([3]; all 5 patients) was “no significant side-effects”. For the same molecule, the “tolerability of the treatment” value ([3]; all 5 patients) was “tolerated the treatment well”, the “biochemical tests after administration” value ([3]; all patients) was “normal” and the side-effect observed ([3]; during and immediately after the injection) was “mild feeling of warmth followed by pain at the site of the tumor”. For the same molecule, the “time until pain subsided” value ([3]; patient 2, mild to moderate pain in the hepatic region, NSAIDs given) was 24 to 48 h.
